This note sets out measurements from US11739122B2, “Glycopeptide antibiotic compounds, methods for producing the same, and uses thereof” (Academia Sinica, priority 2019, dated 2023).

Series [1] concerns A. baumannii ATCC 19606. Kind of series: MIC, broth microdilution. The format is cell-based, Acinetobacter baumannii. The note with it: for MIC on AB: A. baumannii ATCC 19606. The protocol:
(§1) Determination of Minimal Inhibitory Concentration (MIC) for Vancomycin, Teicoplanin and Tei-Analogs Versus Selected Strains
(§2) MICs were determined by the broth microdilution method. Specifically, 12 Colonies of the test strain were picked up from 18-24 hour agar cultures and freshly inoculated into broth mediums until reaching the turbidity of a 0.5 McFarland standard. The broth culture was adjusted with broth medium to approximately 1×10^8 CFUmL^−1. […] The plates were incubated in 37° C. for 18-24 hours and monitored for the wells of the positive control, where cells grew, and the wells of the negative control, where wells should not grow. The MIC value was determined for the concentration of a test compound, at which there was no visible growth in the well.
(In general: Broth dilution looks for growth in wells or tubes with falling amounts of substance.)

The test system of the next series is MRSA ATCC 700787. Kind of series: Minimal bactericidal concentration (MBC). The format is cell-based, Staphylococcus aureus. The procedure:
(§3) Minimal Bactericidal Concentration (MBC) Determination
(§4) The MBC test is an extension of the MIC examination. MBC was determined by performing subcultures on antibiotic-free agar from both the well where there was no visible growth at the MIC of a tested antibiotic and from the positive control well (with inoculum but without compounds). The plates were incubated at 37° C. for 18-24 hours. The MBC was taken as the lowest concentration of the test compound that results in more than 99.9% reduction of viable bacteria. If MBC was one or two dilutions above a given MIC value (MBC/MIC ratio was less than or equal to four), the antibiotic was considered bactericidal against the test organism.

Another series relates to VRE ATCC 700425 (vanC). Kind of series: MIC, broth microdilution. The format is cell-based, enterococci. The note with it: VRE ATCC 700425 (vanC). The procedure: as §1, §2
The test system of another series is VRE ATCC 700221 (vanA). Put plainly: MIC, broth microdilution. The format is cell-based, enterococci. The conditions noted are these: VRE ATCC 700221 (vanA). The procedure: as §1, §2
A further series concerns VRE ATCC 700802 (vanB). Put plainly: MIC, broth microdilution. The note with it: VRE ATCC 700802 (vanB). The format is cell-based, enterococci. The procedure:
as §1, §2

In a further series the test system is S. aureus ATCC 29213. Kind of series: MIC, broth microdilution. The format is cell-based, Staphylococcus aureus. The conditions noted are these: SA ATCC 29213. The procedure:
as §1, §2

In another series the test system is MRSA ATCC 700698 hVISA. Kind of series: MIC, broth microdilution. The format is cell-based, Staphylococcus aureus. The conditions noted are these: MRSA ATCC 700698 hVISA. The protocol:
as §1, §2

In a further series the test system is MRSA ATCC 700787 VRSA. Kind of series: MIC, broth microdilution. The format is cell-based, Staphylococcus aureus. The protocol: as §1, §2
In the next series the test system is E. faecalis ATCC 29302. Kind of series: MIC, broth microdilution. The format is cell-based. The note with it: EF ATCC 29302. The procedure:
as §1, §2

Another series relates to AB ATCC 19606. Kind of series: Minimal bactericidal concentration (MBC). The format is cell-based, Acinetobacter baumannii. The procedure:
as §3, §4

The subject of series [2] is A. baumannii ATCC 19606. Kind of series: Thin-section TEM, cell wall morphology. The format is cell-based, Acinetobacter baumannii. The conditions noted are these: AB ATCC 19606; 24 50 μM, colistin 3.2 μM, combination 25 μM each.
Protocol: Thin-Section Transmission Electron Microscopy (TEM)
An overnight cultured MRSA ATCC 700787, VRE ATCC 700221 or A. baumannii ATCC 19606 was individually sub-cultured into a fresh medium. Bacteria at the exponential phase were treated with a given test compound at a concentration of 4×MIC for 1-4 hour at 37° C. and followed by wash and resuspension in PBS. Bacteria cells for the TEM analysis were prepared as follows: Cells were fixed with 2.5% glutaraldehyde for 30 minutes. After the fixation, cells were washed twice with PBS and fixed with 1% osmium tetraoxide for another 30 minutes. All the buffer was removed with distilled water. The cells were then stained with 1% uranyl acetate and dehydrated with a graded ethanol solution. Cells were embedded in resin. Finally, each sample was cut into thin slices of approximately 90 nm with a glass knife and stained with uranyl acetate. The images of bacterial morphological were recorded.
The test system of series [3] is A. baumannii ATCC 19606. Put plainly: In vivo efficacy, intranasal A. baumannii infection. The arrangement: species or system mice. The note with it: BAL fluid, 24 hours post-inoculation; 24 and kanamycin 30, amikacin 15 mgkg^−1. The protocol:
In Vivo Efficacy of r6,N-Acyl-Glc Tei Analogs
Female C57BL/6 mice (6 weeks of age; about 16-19 g, 3-5 mice per group) were intraperitoneally inoculated with 300 μL of MRSA ATCC 700787 suspension (about 10^7 CFUmL^−1). For intranasal A. baumannii (ATCC 19606) inoculation, mice were anesthetized, and inoculated intranasally with about 10^7-10^8 CFUmL^−1 A. baumannii in 50 μL of PBS. Treatments were started 1 hour after the bacterial challenge. The dose administration to mice was set as follows: teicoplanin (1) or r6,C8-Tei analog (14) 20 mgkg^−1 was intraperitoneally injected to MRSA-infected mice; amikacin (15 mgkg^−1), teicoplanin (1) (30 mgkg^−1), kanamycin (30 mgkg^−1) or r1,Me2-r6,guanidino-C8 analog (24) (30 mgkg^−1) was intraperitoneally injected to AB-infected mice. To assess bacteraemia, the test animals were sacrificed to collect 1 mL of peritoneal fluid (PF) for MRSA counting or the lungs were lavaged to collect 0.6 mL bronchoalveolar lavage (BAL) fluid for A. baumannii counting.
For AB (ATCC 19606), female C57BL/6 mice were first anesthetized by intraperitoneal injection of zoletil and then intranasally inoculated with 50 μL of bacteria in a PBS solution (about 10^7-10^8 CFUmL^−1). The treatment started 1 hour post-infection with a single dose of compound 24 (30 mgkg^−1), compound 1 (30 mgkg^−1), amikacin (15 mgkg^−1), or kanamycin (30 mgkg^−1), where saline/compound 1 and amikacin/kanamycin respectively served as negative and positive controls. To assess the density of bacteraemia, the lungs of mice were lavaged to collect 0.6 mL bronchoalveolar lavage (BAL) fluid from each mouse at 24 hours post-inoculation. For saline/compound 1 treated controls, the bacterial load was counted (about 4 log CFUmL^−1, FIG. 4B), where the bacterial load was reduced by 0.5 or 1 log CFUmL^−1 with the treatment of amikacin/kanamycin or compound 24, respectively.

The next series deals with HEK293T cells. Kind of series: Alamar Blue cell viability assay. The format is cell-based, human. The conditions noted are these: up to 100 μgmL^−1; 2 and 24 h. The procedure:
The Alamar Blue (AB) assay, which includes a redox indicator that changes color or emits fluorescence in response to a metabolic activity, was used to assess in vitro mammalian cell cytotoxicity (human embryonic kidney cells (HEK293T)) upon an antibiotic treatment. 2×10^5 cellsmL^−1 were allowed to adhere on 96-well plates overnight at 37° C. in a humidified incubator (5% CO2 atmosphere). Tested compounds were dissolved in 50% DMSO to make 1 mgmL^−1 of a stock solution. Cells were separately aliquoted with 5 μL of a test compound (final concentration: 100 μgmL^−1) and incubated. PBS and 50% DMSO, which was used to dissolve compounds, served as a control. Cell viability was triplicated and assessed at 2 and 24 hour time points for each test compound, on which the measurements followed the manufacturer protocol.
For orientation: Alamar Blue is a resazurin reagent that responds to reducing activity.

In a further series the target is Dbv27 (Nonomuraea gerenzanensis, UniProt Q7WZ64). Put plainly: ITC binding affinity. The conditions noted are these: ITC versus Dbv27. The procedure: Isothermal Titration Calormetry (ITC) Analysis
A stock solution (50 mM) was prepared by dissolving r6,GlcNAc pseudoaglycone (9) in 50% DMSO. The 1 mM protein solutions of Orf2*, Orf2*T and Dbv27 were prepared in a 50 mM HEPES buffer solution at pH 8.0. The solution (50 mM HEPES, pH8.0 and 10% DMSO) that contained compound 9 (1 mM) or S-adenosylmethionine (SAM) (1 mM) in a 40 μL injection syringe was titrated into the Orf2*, Orf2*T or Dbv27 (0.1 mM) protein solution, which was placed in the sample cell of a 200 μL volume. Each titration consisted of 16 injections of a 2 μL4 s^−1 duration in an interval of 150 seconds. Data analysis was performed by software.

[4] abbreviates: A. baumannii ATCC 19606, Table 3, first figure of cell.
The mark [5] stands for this setting: A. baumannii ATCC 19606, Table 3, second figure of cell.

In brackets after ≈: the same amount, converted by molar mass.

Chain of Dbv27 (Q7WZ64 entry or part of it): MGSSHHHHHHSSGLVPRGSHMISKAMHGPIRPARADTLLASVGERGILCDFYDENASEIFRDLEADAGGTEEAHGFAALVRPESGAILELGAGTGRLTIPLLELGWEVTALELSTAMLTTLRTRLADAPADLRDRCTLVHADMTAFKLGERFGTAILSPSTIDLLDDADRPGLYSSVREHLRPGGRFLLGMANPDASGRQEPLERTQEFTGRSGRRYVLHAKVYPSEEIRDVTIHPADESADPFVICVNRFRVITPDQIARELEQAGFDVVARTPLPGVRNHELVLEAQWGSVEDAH

For the compound `CN(C)[C@H]1C(=O)N[C@@H]2Cc3ccc(c(Cl)c3)Oc3cc4cc(c3O)Oc3ccc(cc3Cl)[C@@H](O[C@@H]3O[C@H](CO)[C@@H](O)[C@H](O)[C@H]3NC(=O)CCCCCCCNC(=N)N)[C@@H]3NC(=O)[C@H](NC(=O)[C@@H]4NC(=O)[C@@H](NC2=O)c2cc(O)cc(c2)Oc2cc1ccc2O)c1ccc(O)c(c1)-c1c(O)cc(O)cc1[C@@H](C(=O)O)NC3=O` [Compound 24, r1,Me2-r6,C8-guanidino-Tei], the “MIC on AB” value in the series with A. baumannii ATCC 19606 [1] stood at 39.24 µg/mL (≈ 25 µM). Also, the MIC (as a rule, the least concentration at which growth counts as inhibited) in the series on A. baumannii ATCC 19606 [1] (setting [4]) was 25 µM; against A. baumannii ATCC 19606 [1] (setting [5]), 39.24 µg/mL; against A. baumannii ATCC 19606 [1] (AB ATCC 19606, Table 4) it was 39.24 µg/mL; against VRE ATCC 700425 (vanC), 8 µg/mL (≈ 5.09 µM); against VRE ATCC 700221 (vanA), greater than 16 µg/mL; against VRE ATCC 700802 (vanB) it was 4 µg/mL (≈ 2.55 µM). Also, the MIC against S. aureus ATCC 29213 was 0.5 µg/mL (≈ 0.318 µM); in the series on MRSA ATCC 700698 hVISA, 0.031 µg/mL (≈ 0.0197 µM); against MRSA ATCC 700787 VRSA (MRSA ATCC 700787, Table 4), 0.016 µg/mL (≈ 0.0102 µM); against MRSA ATCC 700787 VRSA (MRSA ATCC 700787 VRSA), 0.016 µg/mL (≈ 0.0102 µM); in the series with E. faecalis ATCC 29302, 0.5 µg/mL (≈ 0.318 µM). For the same compound, the results for the MBC against MRSA ATCC 700787 and in the series with AB ATCC 19606 were 0.031 µg/mL (≈ 0.0197 µM) and 39.24 µg/mL (≈ 25 µM), respectively. Also, the MBC/MIC in the series with MRSA ATCC 700787 is listed as 2; in the series on AB ATCC 19606, 1. In addition, the “cell membrane/cell wall morphology by TEM” value in the series on A. baumannii ATCC 19606 [2] was “intactness of cell membrane/cell wall was severely damaged”. Further, the “bacterial load reduced by” value with A. baumannii ATCC 19606 [3] is on record as 1 log CFUmL^−1. The “cytotoxicity to HEK293T cells” value with HEK293T cells is “did not exhibit any observable toxicity”.

Consider colistin sulfate [reference compound], for which, in the series on A. baumannii ATCC 19606 [1], the “MIC on AB” value turned out to be 1.98 µg/mL. Also, the MIC with A. baumannii ATCC 19606 [1] (setting [4]) is 1.56 µM; in the series with A. baumannii ATCC 19606 [1] (setting [5]), 1.98 µg/mL. Besides, the “cell membrane/cell wall morphology by TEM” value with A. baumannii ATCC 19606 [2] is given as “intactness of cell membrane/cell wall was severely damaged”.

In the case of `N[C@H]1[C@H](O[C@@H]2c3ccc(c(Cl)c3)Oc3cc4cc(c3O)Oc3ccc(cc3Cl)C[C@H]3NC(=O)[C@H](N)c5ccc(O)c(c5)Oc5cc(O)cc(c5)[C@H](NC3=O)C(=O)N[C@H]4C(=O)N[C@H]3C(=O)N[C@@H]2C(=O)N[C@H](C(=O)O)c2cc(O)cc(O)c2-c2cc3ccc2O)O[C@H](CO)[C@@H](O)[C@@H]1O` [Compound 12, r6,Glm pseudoaglycone], the Kd – broadly, a measure of binding affinity in units of concentration – at Dbv27 came to 5 µM.
